This note sets out measurements from patent US20040235939A1, “Synthesis of peloruside a and analogs thereof for use as antitumor agents” (priority 2003, published 2004).

For one assay, the system named is SK-MEL-5 cells. Put plainly: Cell viability of SK-MEL-5 cells treated with Peloruside analogs. It is filed as cell-based, human. As to conditions: SK-MEL-5, 10 to 1000 nM. The method, then:
(§1) Cells were treated with medium, DMSO, LX3111 or LX3136 at a final concentration of 10, 50, 100, 200, 300, 400, 500, 600, 800 or 1000 nM. Cell viability was measured by counting surviving cells or measuring luminescence at 48 hours after drug treatment using the Cell Titer-Glo Luminescent Cell Viability Assay (Promega).

A further assay has as its system HeLa cells. Put plainly: Cell viability of HeLa cells treated with Peloruside analogs. It counts as cell-based, human. As to conditions: 10 to 1000 nM. On the procedure:
as §1

The subject of assay [1] is Tubulin, purified from bovine brains. The assay is described as follows: Tubulin polymerization in vitro. It counts as biochemical. The method, then: Tubulin, purified from bovine brains and prepared in PEM-buffer (80 mM PIPES, 0.5 mM MgCl2, 1 mM EGTA, pH 6.9) was thawed under vacuum on ice. Tubulin was incubated at 37° C. until almost melted and resuspended to a final concentration of 2 mg/ml and placed on ice. Peloruside A or Taxol® was added into transparent 96-well plates (Coming Incorp. Costar) and placed on ice. GTP (Sigma) was added to a final concentration of 1 mM. The 96 well plate was warmed to 37° C. and 120 μl of tubulin solution was added into each well. The absorbance of the reaction at 340 nm over time (each 40-50 sec.) was measured on the spectrophotometer TECAN SPECTRAFluor Plus. Peloruside A or Taxol® was added to the tubulin at a final concentration of 5 or 10 μM.

A further assay has as its system HeLa. Put plainly: Growth of cultured human tumor cell line HeLa. It is filed as cell-based. As to conditions: up to 10 μM.
For another assay, the system named is SK-MEL-5. The assay is described as follows: Growth of cultured human tumor cell line SK-MEL-5. As to conditions: SK-MEL-5, up to 10 μM. It is filed as cell-based.

Like-named read-outs stand apart in the source and are kept apart here.

For `CC[C@H](/C=C(/C)C1C[C@H](OC)CC(O)C(C)(C)C2(O)OC(C[C@@H](OC)C2O)C[C@@H](OC)[C@H](O)C(=O)O1)CO` (stereo partly shown) [LX3111], the “inhibition of cell growth (antimitotic activity)” value with SK-MEL-5 cells and in the assay on HeLa cells was “potent antimitotic activity” each time.

Turning to `CC[C@H](/C=C(/C)C1C[C@@H](OC)CC(O)C(C)(C)C2(O)OC(C[C@@H](OC)C2O)C[C@@H](OC)[C@H](OCOC)C(=O)O1)CO` (stereo partly shown) [LX3136], the “inhibition of cell growth (antimitotic activity)” value in the assay on SK-MEL-5 cells and in the assay with HeLa cells was “potent antimitotic activity” each time.

Take (−)-Peloruside A [Compound 40]: the entries for the “polymerization of tubulin dimers into microtubule polymers (microtubule-stabilizing activity)” value in assay [1] and in assay [1] (listed as (−)-Peloruside A) were “did not polymerize tubulin dimers into microtubule polymers” and “biologically inactive”, respectively. The “effect on the growth of cultured human tumor cell line” value with HeLa is “no effect on the growth”; with HeLa (listed as (−)-Peloruside A), “inactive”; with SK-MEL-5 it was “no effect on the growth”; in the assay with SK-MEL-5 (listed as (−)-Peloruside A) it was “inactive”.
